# Measurements taken from US8735439B2, “Chlorin e6-folic acid conjugate, preparation method thereof, and a pharmaceutical composition for the treatment of cancer comprising the same” (Diatech Korea Co., Ltd., priority 2009, dated 2014).
# Key:
# [1] = Spectral and fluorescent parameters of chlorin e6 conjugate in different systems; assay type: physicochemical
# Method: Pigment-protein complexes have been formed by adding to the solution of human serum albumin (HAS) a specific amount of photosensitizer dissolved in the same buffer. […] Similarly, the photosensitizer was included in detergent micelle (Triton X-100, C=10^−3M).
# The electronic absorption spectra of the subject solution were recorded on Specord UV-Vis. The fluorescence spectra and value of degree of fluorescence polarization (P) were recorded on an automatic spectrofluorimeter (Institute of Physics). Life time of photosensitizer fluorescence (ts) was estimated using an impulse fluorometer operating in the mode of photons counting.
# The main feature of the absorption spectrum is intensive (ε=4.8 10^4 M^−1 cm^−1) Qx (0-0) band at 660 nm, which falls into the spectral window of the majority of biological tissues.
# Complex formation of chlorin e6 conjugate, and HSA, liposomes or detergent micelles leads to bathochromic shift in the absorption and fluorescence spectra of pigment. However, an increase in fluorescence photoresponse (B) was observed, which correlates with the growth of life time (ts) without changing of the Kravec integral value.
# Hela cells = experiment: Accumulation in Hela cells; assay type: cell-based; conditions: for concentration in Hela cells: 2×10^−5 M/l, 37° C.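 For concentration in Hela cells: measured as suspension fluorescence intensity at excitation 405 nm and emission 665 nm.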
# Method: The cellular accumulation and the targeted delivery of the photoactive compounds were investigated using Hela cells, which is one of the numerous tumor cell types that overexpress folate receptors.
# Cells were cultivated for 3 days in medium 199, and transferred to Hank's solution/medium 199 (9/1). After 3 hours, the cell were collected by trypsin treatment from the substrate and placed in Hank's solution (10^5 ? /ml). To cell suspensions, chlorin e6 conjugates were added at a concentration of 2×10^−5 M/l, and incubated at 37° C. After 1, 5, 10, 15, and 24 hours, the samples were centrifuged, the pellet was washed with the cooled Hank's solution, and transferred to Hank's solution at a concentration being equal to that in the initial suspension.
# sarcoma M-1 [2] = experiment: Accumulation kinetics of photosensitizer in rats with sarcoma M-1; assay type: in vivo; conditions: rats with sarcoma M-1, 5.0 mg/kg
# Method: The experiments were conducted on 100 white outbred rats with subcutaneous transplantation of sarcoma M-1, 7-9 days after tumor transplant. Photosensitizers were introduced to the animals via an intravenous route, once at a dose of 2.5, 5.0 and 10.0 mg/kg in a room with a low level of light. A sterile isotonic solution of sodium chloride was used as a solvent. Follow up over the dynamics of photosensitizer accumulation in tumor and normal tissues was conducted at 30 mins, 1-5 hours, and 1-6 days after photosensitizer administration.
# In tumor tissues of rats with sarcoma M-1 and normal tissues (skin of opposite haunch), the dynamics of photosensitizer accumulation was analyzed by the method of measurement of life time using computer fluorescent spectrophotometry. For this purpose, a laser-fiber spectroanalyzer “LESA-6” with a helium-neon diagnostic laser “LHN 633-25” (BIOSPEC, Moscow) was used. This allows an estimate locally of the level of photosensitizer accumulation in any organs and tissues accessible for an optical fiber probe.
# For real time monitoring at every hour after administration of the drug, the distal end of a catheter was placed over the tumor and normal tissues, and the intensity of the drug accumulation was recorded on the wave length corresponding to maximum fluorescence. […]
# sarcoma M-1 [3] = experiment: Growth of sarcoma M-1 after PDT (tumor volume); assay type: in vivo, rats
# Method: For this purpose, a laser medical instrument “ ? 680-2000” (BIOSPEC, Moscow) was used to perform the exposure at a wavelength of 670 nm in a dose of 100 J/cm^2. The power density was 0.51 W/cm^2, the output power was 0.4 W, and the spot light diameter was 1 cm. Time of exposure was […]. Monitoring over radiating power was conducted by a universal power meter included in the laser device “ ? 4680-2000”.
substance,measurement,setting,value
[γ-(6-aminohexyl)folic acid]-chlorin e6 [chlorin e6 conjugate],l^00abs,[1]; Dimethyl sulfoxide,661 Nm
same,l^00fl,[1]; Dimethyl sulfoxide,672 nm
same,tS (life time of fluorescence),[1]; Dimethyl sulfoxide,4.6 ns
same,B (fluorescence photoresponse),"[1]; H2O, pH 8.1",0.16
same,l^00abs,"[1]; H2O, pH 8.1",657 Nm
same,l^00fl,"[1]; H2O, pH 8.1",664 nm
same,tS (life time of fluorescence),"[1]; H2O, pH 8.1",4.3 ns
same,B (fluorescence photoresponse),"[1]; HSA, pH 8.1",0.18
same,l^00abs,"[1]; HSA, pH 8.1",664 Nm
same,l^00fl,"[1]; HSA, pH 8.1",669 nm
same,tS (life time of fluorescence),"[1]; HSA, pH 8.1",5.2 ns
same,B (fluorescence photoresponse),"[1]; Liposomes, pH 8.1",0.21
same,l^00abs,"[1]; Liposomes, pH 8.1",665 Nm
same,l^00fl,"[1]; Liposomes, pH 8.1",670 nm
same,tS (life time of fluorescence),"[1]; Liposomes, pH 8.1",5.4 ns
same,l^00abs,[1]; Methanol,662 Nm
same,l^00fl,[1]; Methanol,667 nm
same,tS (life time of fluorescence),[1]; Methanol,4.8 ns
same,B (fluorescence photoresponse),[1]; Pyridine,0.18
same,l^00abs,[1]; Pyridine,666 Nm
same,l^00fl,[1]; Pyridine,673 nm
same,tS (life time of fluorescence),[1]; Pyridine,5.0 ns
same,l^00abs,[1]; Tetrahydrofuran,667 Nm
same,tS (life time of fluorescence),[1]; Tetrahydrofuran,5.0 ns
same,B (fluorescence photoresponse),"[1]; Triton X-100, pH 8.1",0.19
same,l^00abs,"[1]; Triton X-100, pH 8.1",665 Nm
same,l^00fl,"[1]; Triton X-100, pH 8.1",670 nm
same,tS (life time of fluorescence),"[1]; Triton X-100, pH 8.1",5.7 ns
same,P (degree of fluorescence polarization),[1]; in liposomes,0.13
same,binding with cells over time,Hela cells; Hela cells,increases linearly over 20 hours
same,accumulation compared with cellular uptake of free chlorin e6,"Hela cells; Hela cells, after 6 hr incubation",distinctly higher
same,cellular uptake relative to free chlorin e6,"Hela cells; Hela cells, after 24 hr incubation, on average, listed as chlorin e6-folic acid conjugate",about 10 fold
same,concentration in Hela cells,Hela cells; incubation 1 hour,0.40 relative units/10^4 cl.
same,concentration in Hela cells,Hela cells; incubation 5 hours,1.80 relative units/10^4 cl.
same,concentration in Hela cells,Hela cells; incubation 10 hours,2.50 relative units/10^4 cl.
same,concentration in Hela cells,Hela cells; incubation 15 hours,12.5 relative units/10^4 cl.
same,concentration in Hela cells,Hela cells; incubation 24 hours,15.0 relative units/10^4 cl.
same,time of maximum accumulation in tumor tissue,sarcoma M-1 [2],2 to 5 h
same,Growth inhibition rate of sarcoma M-1 in volume to the control,"sarcoma M-1 [3]; 2.5 mg/100 g + 100 J/cm^2 for 1 h, day 7",47.5%
same,Growth inhibition rate of sarcoma M-1 in volume to the control,"sarcoma M-1 [3]; 2.5 mg/100 g + 100 J/cm^2 for 1 h, day 10",79.4%
same,Growth inhibition rate of sarcoma M-1 in volume to the control,"sarcoma M-1 [3]; 2.5 mg/100 g + 100 J/cm^2 for 1 h, day 12",87.6%
same,Growth inhibition rate of sarcoma M-1 in volume to the control,"sarcoma M-1 [3]; 2.5 mg/100 g + 100 J/cm^2 for 1 h, day 14",89.8%
same,Growth inhibition rate of sarcoma M-1 in volume to the control,"sarcoma M-1 [3]; 2.5 mg/100 g + 100 J/cm^2 for 1 h, day 17",94.8%
same,Growth inhibition rate of sarcoma M-1 in volume to the control,"sarcoma M-1 [3]; 2.5 mg/100 g + 100 J/cm^2 for 1 h, day 19",94.1%
same,Growth inhibition rate of sarcoma M-1 in volume to the control,"sarcoma M-1 [3]; 2.5 mg/100 g + 100 J/cm^2 for 1 h, day 21",94.2%
same,Growth inhibition rate of sarcoma M-1 in volume to the control,"sarcoma M-1 [3]; 2.5 mg/100 g + 100 J/cm^2 for 1 h, day 24",93.6%
same,volume of sarcoma M-1,"sarcoma M-1 [3]; 2.5 mg/kg + 100 J/cm^2 for 1 h, day 7 after tumor transplant",0.25 ± 0.03 cm^3
same,volume of sarcoma M-1,"sarcoma M-1 [3]; 2.5 mg/kg + 100 J/cm^2 for 1 h, day 10",0.28 ± 0.03 cm^3
same,volume of sarcoma M-1,"sarcoma M-1 [3]; 2.5 mg/kg + 100 J/cm^2 for 1 h, day 12",0.34 ± 0.06 cm^3
same,volume of sarcoma M-1,"sarcoma M-1 [3]; 2.5 mg/kg + 100 J/cm^2 for 1 h, day 14",0.41 ± 0.09 cm^3
same,volume of sarcoma M-1,"sarcoma M-1 [3]; 2.5 mg/kg + 100 J/cm^2 for 1 h, day 17",0.46 ± 0.11 cm^3
same,volume of sarcoma M-1,"sarcoma M-1 [3]; 2.5 mg/kg + 100 J/cm^2 for 1 h, day 19",0.69 ± 0.27 cm^3
same,volume of sarcoma M-1,"sarcoma M-1 [3]; 2.5 mg/kg + 100 J/cm^2 for 1 h, day 21",0.96 ± 0.38 cm^3
same,volume of sarcoma M-1,"sarcoma M-1 [3]; 2.5 mg/kg + 100 J/cm^2 for 1 h, day 24",1.19 ± 0.48 cm^3
same,Growth inhibition rate of sarcoma M-1 in volume to the control,"sarcoma M-1 [3]; 5 mg/100 g + 100 J/cm^2 for 1 h, day 7",36.9%
same,Growth inhibition rate of sarcoma M-1 in volume to the control,"sarcoma M-1 [3]; 5 mg/100 g + 100 J/cm^2 for 1 h, day 10",77.9%
same,Growth inhibition rate of sarcoma M-1 in volume to the control,"sarcoma M-1 [3]; 5 mg/100 g + 100 J/cm^2 for 1 h, day 12",89.1%
same,Growth inhibition rate of sarcoma M-1 in volume to the control,"sarcoma M-1 [3]; 5 mg/100 g + 100 J/cm^2 for 1 h, day 14",92.6%
same,Growth inhibition rate of sarcoma M-1 in volume to the control,"sarcoma M-1 [3]; 5 mg/100 g + 100 J/cm^2 for 1 h, day 17",95.8%
same,Growth inhibition rate of sarcoma M-1 in volume to the control,"sarcoma M-1 [3]; 5 mg/100 g + 100 J/cm^2 for 1 h, day 19",95.9%
same,Growth inhibition rate of sarcoma M-1 in volume to the control,"sarcoma M-1 [3]; 5 mg/100 g + 100 J/cm^2 for 1 h, day 21",96.9%
same,Growth inhibition rate of sarcoma M-1 in volume to the control,"sarcoma M-1 [3]; 5 mg/100 g + 100 J/cm^2 for 1 h, day 24",97.1%
same,volume of sarcoma M-1,"sarcoma M-1 [3]; 5 mg/kg + 100 J/cm^2 for 1 h, day 7 after tumor transplant",0.29 ± 0.02 cm^3
same,volume of sarcoma M-1,"sarcoma M-1 [3]; 5 mg/kg + 100 J/cm^2 for 1 h, day 10",0.300 ± .03 cm^3
same,volume of sarcoma M-1,"sarcoma M-1 [3]; 5 mg/kg + 100 J/cm^2 for 1 h, day 12",0.30 ± 0.03 cm^3
same,volume of sarcoma M-1,"sarcoma M-1 [3]; 5 mg/kg + 100 J/cm^2 for 1 h, day 14",0.30 ± 0.03 cm^3
same,volume of sarcoma M-1,"sarcoma M-1 [3]; 5 mg/kg + 100 J/cm^2 for 1 h, day 17",0.37 ± 0.05 cm^3
same,volume of sarcoma M-1,"sarcoma M-1 [3]; 5 mg/kg + 100 J/cm^2 for 1 h, day 19",0.47 ± 0.11 cm^3
same,volume of sarcoma M-1,"sarcoma M-1 [3]; 5 mg/kg + 100 J/cm^2 for 1 h, day 21",0.50 ± 0.14 cm^3
same,volume of sarcoma M-1,"sarcoma M-1 [3]; 5 mg/kg + 100 J/cm^2 for 1 h, day 24",0.54 ± 0.17 cm^3
same,Growth inhibition rate of sarcoma M-1 in volume to the control,"sarcoma M-1 [3]; 10 mg/100 g + 100 J/cm^2 for 1 h, day 7",56.5%
same,Growth inhibition rate of sarcoma M-1 in volume to the control,"sarcoma M-1 [3]; 10 mg/100 g + 100 J/cm^2 for 1 h, day 10",86.0%
same,Growth inhibition rate of sarcoma M-1 in volume to the control,"sarcoma M-1 [3]; 10 mg/100 g + 100 J/cm^2 for 1 h, day 12",93.8%
same,Growth inhibition rate of sarcoma M-1 in volume to the control,"sarcoma M-1 [3]; 10 mg/100 g + 100 J/cm^2 for 1 h, day 14",95.8%
same,Growth inhibition rate of sarcoma M-1 in volume to the control,"sarcoma M-1 [3]; 10 mg/100 g + 100 J/cm^2 for 1 h, day 17",98.1%
same,Growth inhibition rate of sarcoma M-1 in volume to the control,"sarcoma M-1 [3]; 10 mg/100 g + 100 J/cm^2 for 1 h, day 19",95.2%
same,Growth inhibition rate of sarcoma M-1 in volume to the control,"sarcoma M-1 [3]; 10 mg/100 g + 100 J/cm^2 for 1 h, day 21",98.8%
same,Growth inhibition rate of sarcoma M-1 in volume to the control,"sarcoma M-1 [3]; 10 mg/100 g + 100 J/cm^2 for 1 h, day 24",98.9%
same,volume of sarcoma M-1,"sarcoma M-1 [3]; 10 mg/kg + 100 J/cm^2 for 1 h, day 7 after tumor transplant",0.20 ± 0.03 cm^3
same,volume of sarcoma M-1,"sarcoma M-1 [3]; 10 mg/kg + 100 J/cm^2 for 1 h, day 10",0.19 ± 0.04 cm^3
same,volume of sarcoma M-1,"sarcoma M-1 [3]; 10 mg/kg + 100 J/cm^2 for 1 h, day 12",0.17 ± 0.03 cm^3
same,volume of sarcoma M-1,"sarcoma M-1 [3]; 10 mg/kg + 100 J/cm^2 for 1 h, day 14",0.17 ± 0.03 cm^3
same,volume of sarcoma M-1,"sarcoma M-1 [3]; 10 mg/kg + 100 J/cm^2 for 1 h, day 17",0.17 ± 0.03 cm^3
same,volume of sarcoma M-1,"sarcoma M-1 [3]; 10 mg/kg + 100 J/cm^2 for 1 h, day 19",0.17 ± 0.03 cm^3
same,volume of sarcoma M-1,"sarcoma M-1 [3]; 10 mg/kg + 100 J/cm^2 for 1 h, day 21",0.20 ± 0.03 cm^3
same,volume of sarcoma M-1,"sarcoma M-1 [3]; 10 mg/kg + 100 J/cm^2 for 1 h, day 24",0.20 ± 0.03 cm^3
same,inhibition rate of tumor volumetric growth compared to the control,"sarcoma M-1 [3]; rats with sarcoma M-1, monitored for 24 days after PDT",86.34-99.1%
